These are literature values, as cited in US8507011B2, “Method for suppressing or preventing fibrous adhesion formation using a multicomponent aqueous oxychlorine composition prepared on-site” (priority 2009, dated 2013).

One data set relates to wound. The following applies: 0.01% concentration.
The next data set relates to adhesion. The following applies: interperitoneal infusion, rats.

As to `OCl` [hypochlorous acid], the pKa result was “about 7.5”. The “Wound irrigant activity (in words)” value with wound is “showed promise as an effective antimicrobial wound irrigant”.

For the molecule `CN(C)c1ccc2nc3ccc(=[N+](C)C)cc-3sc2c1` [methylene blue], the “Adhesion suppression versus control (in words)” value in the data set with adhesion was “none were found between methylene blue and control”.
